Assay results published in PubChem BioAssay AID2060899 (Molecular Pharmacology Branch, DTP, NCI, 2025).

System: 565726-208-R1-J5-PDC complex spheroids, growth inhibition
Assay: Anticancer human tumor 565726-208-R1-J5-PDC patient-derived pancreatic adenocarcinoma cell line growth inhibition [RAS]
Conditions: for IC50: curve of first compound; for viability, T/C: stronger effect = lower value
In short: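 Multi-cell-type spheroids: tumor cells plus HUVEC endothelial cells and mesenchymal stem cells. RAS-pathway inhibitors were combined with targeted agents, each dosed in half-log steps down from clinical Cmax, or from 10 microM when Cmax was unknown.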

[1] = second compound 0.000949 µM, first compound 0.0316 µM
[2] = second compound 0.000949 µM, first compound 0.1 µM
[3] = second compound 0.000949 µM, first compound 0.316 µM
[4] = second compound 0.000949 µM, first compound 1 µM
[5] = second compound 0.003 µM, first compound 0.0316 µM
[6] = second compound 0.003 µM, first compound 0.1 µM
[7] = second compound 0.003 µM, first compound 0.316 µM
[8] = second compound 0.003 µM, first compound 1 µM
[9] = second compound 0.00949 µM, first compound 0.0316 µM
[10] = second compound 0.00949 µM, first compound 0.1 µM
[11] = second compound 0.00949 µM, first compound 0.316 µM
[12] = second compound 0.00949 µM, first compound 1 µM
[13] = second compound 0.03 µM, first compound 0.0316 µM
[14] = second compound 0.03 µM, first compound 0.1 µM
[15] = second compound 0.03 µM, first compound 0.316 µM
[16] = second compound 0.03 µM, first compound 1 µM
[17] = second compound 0.0949 µM, first compound 0.0316 µM
[18] = second compound 0.0949 µM, first compound 0.1 µM
[19] = second compound 0.0949 µM, first compound 0.316 µM
[20] = second compound 0.0949 µM, first compound 1 µM
[21] = second compound 0.3 µM, first compound 0.0316 µM
[22] = second compound 0.3 µM, first compound 0.1 µM
[23] = second compound 0.3 µM, first compound 0.316 µM
[24] = second compound 0.3 µM, first compound 1 µM
[25] = second compound 0.000949 µM, first compound 3.16 µM
[26] = second compound 0.000949 µM, first compound 10 µM
[27] = second compound 0.003 µM, first compound 3.16 µM
[28] = second compound 0.003 µM, first compound 10 µM
[29] = second compound 0.00949 µM, first compound 3.16 µM
[30] = second compound 0.00949 µM, first compound 10 µM
[31] = second compound 0.03 µM, first compound 3.16 µM
[32] = second compound 0.03 µM, first compound 10 µM
[33] = second compound 0.0949 µM, first compound 3.16 µM
[34] = second compound 0.0949 µM, first compound 10 µM
[35] = second compound 0.3 µM, first compound 3.16 µM
[36] = second compound 0.3 µM, first compound 10 µM
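Also: spheroids exposed to compounds for seven days before readout.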
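For viability, T/C in this document: 100% = DMSO vehicle control viability.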

Structure (SMILES): CCN1CCN(Cc2ccc(Nc3ncc(F)c(-c4cc(F)c5nc(C)n(C(C)C)c5c4)n3)nc2)CC1 + CCn1c(-c2cccnc2C(C)OC)c2c3cc(ccc31)N1CCOC(CC(NC(=O)C(C(C)C)N(C)C(=O)C3(F)CCN(C(=O)C#CC(C)(C)N(C)C)CC3)C(=O)N3CCCC(N3)C(=O)OCC(C)(C)C2)C1
- IC50 (second compound 0.000949 µM): > 1 µM
- IC50 (second compound 0.003 µM): > 1 µM
- IC50 (second compound 0.00949 µM): > 1 µM
- IC50 (second compound 0.03 µM): > 1 µM
- IC50 (second compound 0.0949 µM): > 1 µM
- IC50 (second compound 0.3 µM): > 1 µM
- viability, T/C (second compound 0.000949 µM, first compound 0.00316 µM): 93.5%
- viability, T/C (second compound 0.000949 µM, first compound 0.01 µM): 91.2%
- viability, T/C [1]: 80.6%
- viability, T/C [2]: 74%
- viability, T/C [3]: 59.3%
- viability, T/C [4]: 56.2%
- viability, T/C (second compound 0.003 µM, first compound 0.00316 µM): 105%
- viability, T/C (second compound 0.003 µM, first compound 0.01 µM): 96%
- viability, T/C [5]: 84.3%
- viability, T/C [6]: 74.7%
- viability, T/C [7]: 60.4%
- viability, T/C [8]: 61%
- viability, T/C (second compound 0.00949 µM, first compound 0.00316 µM): 97.7%
- viability, T/C (second compound 0.00949 µM, first compound 0.01 µM): 89.8%
- viability, T/C [9]: 84.4%
- viability, T/C [10]: 69.4%
- viability, T/C [11]: 64.3%
- viability, T/C [12]: 56%
- viability, T/C (second compound 0.03 µM, first compound 0.00316 µM): 91.5%
- viability, T/C (second compound 0.03 µM, first compound 0.01 µM): 94.3%
- viability, T/C [13]: 85.1%
- viability, T/C [14]: 72.7%
- viability, T/C [15]: 62%
- viability, T/C [16]: 57.4%
- viability, T/C (second compound 0.0949 µM, first compound 0.00316 µM): 95%
- viability, T/C (second compound 0.0949 µM, first compound 0.01 µM): 94.7%
- viability, T/C [17]: 85.7%
- viability, T/C [18]: 67.9%
- viability, T/C [19]: 54.1%
- viability, T/C [20]: 59.5%
- viability, T/C (second compound 0.3 µM, first compound 0.00316 µM): 85%
- viability, T/C (second compound 0.3 µM, first compound 0.01 µM): 82.1%
- viability, T/C [21]: 76.5%
- viability, T/C [22]: 64.1%
- viability, T/C [23]: 56.2%
- viability, T/C [24]: 55.3%

Structure (SMILES): Cc1nc(N2CCC3(CC2)COC(C)C3N)c(CO)nc1Sc1ccnc(N)c1Cl (stereo unspecified) + CCn1c(-c2cccnc2C(C)OC)c2c3cc(ccc31)N1CCOC(CC(NC(=O)C(C(C)C)N(C)C(=O)C3(F)CCN(C(=O)C#CC(C)(C)N(C)C)CC3)C(=O)N3CCCC(N3)C(=O)OCC(C)(C)C2)C1
- IC50 (second compound 0.000949 µM): > 10 µM
- IC50 (second compound 0.003 µM): > 10 µM
- IC50 (second compound 0.00949 µM): > 10 µM
- IC50 (second compound 0.03 µM): > 10 µM
- IC50 (second compound 0.0949 µM): > 10 µM
- IC50 (second compound 0.3 µM): > 10 µM
- viability, T/C [1]: 95.1%
- viability, T/C [2]: 92.8%
- viability, T/C [3]: 84.9%
- viability, T/C [4]: 73.7%
- viability, T/C [25]: 80%
- viability, T/C [26]: 66.5%
- viability, T/C [5]: 104%
- viability, T/C [6]: 97%
- viability, T/C [7]: 86.6%
- viability, T/C [8]: 77%
- viability, T/C [27]: 71%
- viability, T/C [28]: 70.6%
- viability, T/C [9]: 83.4%
- viability, T/C [10]: 97.3%
- viability, T/C [11]: 86.3%
- viability, T/C [12]: 76.5%
- viability, T/C [29]: 79.7%
- viability, T/C [30]: 71.6%
- viability, T/C [13]: 95.5%
- viability, T/C [14]: 87.3%
- viability, T/C [15]: 92.8%
- viability, T/C [16]: 89.3%
- viability, T/C [31]: 81.5%
- viability, T/C [32]: 69.6%
- viability, T/C [17]: 81%
- viability, T/C [18]: 98.2%
- viability, T/C [19]: 85.1%
- viability, T/C [20]: 69.8%
- viability, T/C [33]: 77.4%
- viability, T/C [34]: 78.8%
- viability, T/C [21]: 91.2%
- viability, T/C [22]: 79.8%
- viability, T/C [23]: 79.4%
- viability, T/C [24]: 69.8%
- viability, T/C [35]: 70.2%
- viability, T/C [36]: 59.2%

Structure (SMILES): NC1c2ccccc2OC12CCN(c1cnc3c(N4CCCc5ncccc54)n[nH]c3n1)CC2 (stereo unspecified) + CCn1c(-c2cccnc2C(C)OC)c2c3cc(ccc31)N1CCOC(CC(NC(=O)C(C(C)C)N(C)C(=O)C3(F)CCN(C(=O)C#CC(C)(C)N(C)C)CC3)C(=O)N3CCCC(N3)C(=O)OCC(C)(C)C2)C1
- IC50 (second compound 0.000949 µM): > 10 µM
- IC50 (second compound 0.003 µM): > 10 µM
- IC50 (second compound 0.00949 µM): > 10 µM
- IC50 (second compound 0.03 µM): > 10 µM
- IC50 (second compound 0.0949 µM): > 10 µM
- IC50 (second compound 0.3 µM): 8.09 µM
- viability, T/C [1]: 82.5%
- viability, T/C [2]: 77.5%
- viability, T/C [3]: 72.6%
- viability, T/C [4]: 60.9%
- viability, T/C [25]: 65.7%
- viability, T/C [26]: 56.9%
- viability, T/C [5]: 82.6%
- viability, T/C [6]: 76.8%
- viability, T/C [7]: 70%
- viability, T/C [8]: 65%
- viability, T/C [27]: 62.9%
- viability, T/C [28]: 60.5%
- viability, T/C [9]: 76.3%
- viability, T/C [10]: 85.5%
- viability, T/C [11]: 70%
- viability, T/C [12]: 65%
- viability, T/C [29]: 64.8%
- viability, T/C [30]: 55.5%
- viability, T/C [13]: 85.4%
- viability, T/C [14]: 76.3%
- viability, T/C [15]: 73.4%
- viability, T/C [16]: 62.7%
- viability, T/C [31]: 58.8%
- viability, T/C [32]: 58.5%
- viability, T/C [17]: 78.8%
- viability, T/C [18]: 75.6%
- viability, T/C [19]: 71.5%
- viability, T/C [20]: 65%
- viability, T/C [33]: 58.5%
- viability, T/C [34]: 57%
- viability, T/C [21]: 72.8%
- viability, T/C [22]: 68.2%
- viability, T/C [23]: 68.8%
- viability, T/C [24]: 59.5%
- viability, T/C [35]: 54.2%
- viability, T/C [36]: 49.5%
